Our source for the IC50 values is patent US9416111B2, “Substituted diazine and triazine spleen tyrosine kinease (Syk) inhibitors” (Merck Sharp & Dohme Corp., priority 2012, dated 2016).

Where “and” joins values, the source holds several entries; their conditions need not be identical. Equal entries are not always repeated.

For one experiment, the target named is T1, recombinant human GST-SYK (Homo sapiens, UniProt P43405).
T1 construct: purchased Carna Biosciences 08-176
Kind of experiment: Homogeneous Time-Resolved Fluorescence (HTRF) assay for the recombinant human Syk enzyme. It counts as biochemical. The note with it: GST-hSYK 5 pM, ATP 25 μM, IC50 rated in classes, read-out: rhSYK Activity. In outline:
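HTRF read-out, via Europium anti-phosphotyrosine antibody and SA-APC added with EDTA, measured phosphorylation of a 250 nM biotinylated substrate after 45 min at room temperature with 25 μM ATP and 5 mM magnesium. Enzyme was 5 pM GST-hSYK, preincubated 10 min with compound in Tris pH 7.5 buffer containing DTT.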
Regarding `Cc1cc(Nc2nccc(C(F)(F)F)n2)cc(-c2cnc(NC3(C(=O)O)CCCC3)nc2)c1` [Example 2.76, 1-{[5-(3-methyl-5-{[4-(trifluoromethyl)pyrimidin-2-yl]amino}phenyl)pyrimidin-2-yl]amino}cyclopentanecarboxylic acid], the IC50 is < 100 nM.
On the same count and under the same terms, the result for `Cc1cc(Nc2nccc(C(F)(F)F)n2)cc(-c2cnc(N3CCC(C(=O)O)CC3)nc2)c1` [Example 2.79, 1-[5-(3-methyl-5-{[4-(trifluoromethyl)pyrimidin-2-yl]amino}phenyl)pyrimidin-2-yl]piperidine-4-carboxylic acid] reads < 100 nM.
Regarding `Cc1cc(Nc2nccc(C(F)(F)F)n2)cc(-c2cnc(N(C)C(=O)CC#N)nc2)c1` [Example 2.80, 2-cyano-N-methyl-N-[5-(3-methyl-5-{[4-(trifluoromethyl)pyrimidin-2-yl]amino}phenyl)pyrimidin-2-yl]acetamide], the IC50 was < 100 nM.
On the same count and under the same terms, the figure for `Cc1cc(Nc2nccc(C(F)(F)F)n2)cc(-c2cnccn2)c1` [Example 3.2, N-(3-methyl-5-pyrazin-2-ylphenyl)-4-(trifluoromethyl)pyrimidin-2-amine] is 100 to 1000 nM and < 100 nM.
Same read-out and setting: the figure for `CCOC(=O)CCc1cnc(-c2cccc(Nc3nccc(C(F)(F)F)n3)c2)cn1` [Example 3.3, ethyl 3-[5-(3-{[4-(trifluoromethyl)pyrimidin-2-yl]amino}phenyl)pyrazin-2-yl]propanoate] is 1000 to 10000 nM; for `O=C(O)CCc1cnc(-c2cccc(Nc3nccc(C(F)(F)F)n3)c2)cn1` [Example 3.4, 3-[5-(3-{[4-(trifluoromethyl)pyrimidin-2-yl]amino}phenyl)pyrazin-2-yl]propanoic acid] it is 100 to 1000 nM; for `COc1ccnc(Nc2cc(C)cc(-c3cnc(CCC(=O)O)cn3)c2)n1` [Example 3.6, 3-(5-{3-[(4-methoxypyrimidin-2-yl)amino]-5-methylphenyl}pyrazin-2-yl)propanoic acid] it is < 100 nM.
On the same count and under the same terms, the result for `CCOC(=O)CCc1cnc(-c2cc(C)cc(Nc3nccc(C(F)(F)F)n3)c2)cn1` [Example 3.7, ethyl 3-[5-(3-methyl-5-{[4-(trifluoromethyl)pyrimidin-2-yl]amino}phenyl)pyrazin-2-yl]propanoate] reads 100 to 1000 nM; that for `Cc1cc(Nc2nccc(C(F)(F)F)n2)cc(-c2cnc(CCC(=O)O)cn2)c1` [Example 3.8, 3-[5-(3-methyl-5-{[4-(trifluoromethyl)pyrimidin-2-yl]amino}phenyl)pyrazin-2-yl]propanoic acid], < 100 nM; that for `CCOC(=O)CCc1cnc(-c2cc(C)cc(Nc3nccc(C)n3)c2)cn1` [Example 3.9, ethyl 3-(5-{3-methyl-5-[(4-methylpyrimidin-2-yl)amino]phenyl}pyrazin-2-yl)propanoate], 100 to 1000 nM.
Consider `Cc1cc(Nc2nccc(C)n2)cc(-c2cnc(CCC(=O)O)cn2)c1` [Example 3.10, 3-(5-{3-methyl-5-[(4-methylpyrimidin-2-yl)amino]phenyl}pyrazin-2-yl)propanoic acid], for which the IC50 lay in the range of 100 to 1000 nM.
Same read-out and setting: the figure for `CCOC(=O)CCc1cnc(-c2cc(C)cc(Nc3nccc(C4CC4)n3)c2)cn1` [Example 3.11, ethyl 3-(5-{3-[(4-cyclopropylpyrimidin-2-yl)amino]-5-methylphenyl}pyrazin-2-yl)propanoate] is < 100 nM; for `Cc1cc(Nc2nccc(C3CC3)n2)cc(-c2cnc(CCC(=O)O)cn2)c1` [Example 3.12, 3-(5-{3-[(4-cyclopropylpyrimidin-2-yl)amino]-5-methylphenyl}pyrazin-2-yl)propanoic acid] it is < 100 nM; for `CCOC(=O)CCc1cncc(-c2cccc(Nc3nccc(C(F)(F)F)n3)c2)n1` [Example 3.13, ethyl 3-[6-(3-{[4-(trifluoromethyl)pyrimidin-2-yl]amino}phenyl)pyrazin-2-yl]propanoate] it is 1000 to 10000 nM.
For `O=C(O)CCc1cncc(-c2cccc(Nc3nccc(C(F)(F)F)n3)c2)n1` [Example 3.14, 3-[6-(3-{[4-(trifluoromethyl)pyrimidin-2-yl]amino}phenyl)pyrazin-2-yl]propanoic acid], the IC50 is 100 to 1000 nM.
Still for that read-out and setting: the figure for `COc1ccnc(Nc2cc(C)cc(-c3cncc(CCC(=O)O)n3)c2)n1` [Example 3.16, 3-(6-{3-[(4-methoxypyrimidin-2-yl)amino]-5-methylphenyl}pyrazin-2-yl)propanoic acid] is < 100 nM; for `CCOC(=O)CCc1cncc(-c2cc(C)cc(Nc3nccc(C(F)(F)F)n3)c2)n1` [Example 3.17, ethyl 3-[6-(3-methyl-5-{[4-(trifluoromethyl)pyrimidin-2-yl]amino}phenyl)pyrazin-2-yl]propanoate] it is 100 to 1000 nM; for `Cc1cc(Nc2nccc(C(F)(F)F)n2)cc(-c2cncc(CCC(=O)O)n2)c1` [Example 3.18, 3-[6-(3-methyl-5-{[4-(trifluoromethyl)pyrimidin-2-yl]amino}phenyl)pyrazin-2-yl]propanoic acid] it is < 100 nM.
For `CCOC(=O)CCc1cncc(-c2cc(C)cc(Nc3nccc(C)n3)c2)n1` [Example 3.19, ethyl 3-(6-{3-methyl-5-[(4-methylpyrimidin-2-yl)amino]phenyl}pyrazin-2-yl)propanoate], the IC50 was in the range of 100 to 1000 nM.
Regarding `Cc1cc(Nc2nccc(C)n2)cc(-c2cncc(CCC(=O)O)n2)c1` [Example 3.20, 3-(6-{3-methyl-5-[(4-methylpyrimidin-2-yl)amino]phenyl}pyrazin-2-yl)propanoic acid], the IC50 was in the range of 100 to 1000 nM.
Same read-out and setting: the figure for `CCOC(=O)CCc1cncc(-c2cc(C)cc(Nc3nccc(C4CC4)n3)c2)n1` [Example 3.21, ethyl 3-(6-{3-[(4-cyclopropylpyrimidin-2-yl)amino]-5-methylphenyl}pyrazin-2-yl)propanoate] is 100 to 1000 nM.
The same measure, in the same setting: the result for `Cc1cc(Nc2nccc(C3CC3)n2)cc(-c2cncc(CCC(=O)O)n2)c1` [Example 3.22, 3-(6-{3-[(4-cyclopropylpyrimidin-2-yl)amino]-5-methylphenyl}pyrazin-2-yl)propanoic acid] reads < 100 nM.
Take `Cc1cc(Nc2nccc(C(F)(F)F)n2)cc(-c2ncccn2)c1` [Example 3.23, N-(3-methyl-5-pyrimidin-2-ylphenyl)-4-(trifluoromethyl)pyrimidin-2-amine]: the IC50 was 100 to 1000 nM.
For `CCOC(=O)CCc1ccc(-c2cccc(Nc3nccc(C(F)(F)F)n3)c2)nn1` [Example 3.24, ethyl 3-[6-(3-{[4-(trifluoromethyl)pyrimidin-2-yl]amino}phenyl)pyridazin-3-yl]propanoate], the IC50 lay within 1000 to 10000 nM.
As to `O=C(O)CCc1ccc(-c2cccc(Nc3nccc(C(F)(F)F)n3)c2)nn1` [Example 3.25, 3-[6-(3-{[4-(trifluoromethyl)pyrimidin-2-yl]amino}phenyl)pyridazin-3-yl]propanoic acid], the IC50 lay in the range of 100 to 1000 nM.
As to `CCOC(=O)CCc1ccc(-c2cc(C)cc(Nc3nccc(C(F)(F)F)n3)c2)nn1` [Example 3.27, ethyl 3-[6-(3-methyl-5-{[4-(trifluoromethyl)pyrimidin-2-yl]amino}phenyl)pyridazin-3-yl]propanoate], the IC50 is 100 to 1000 nM.
As to `Cc1cc(Nc2nccc(C(F)(F)F)n2)cc(-c2cccnn2)c1` [Example 3.28, N-(3-methyl-5-pyridazin-3-ylphenyl)-4-(trifluoromethyl)pyrimidin-2-amine], the IC50 lay in the range of 100 to 1000 nM.
Same read-out and setting: the result for `Cc1cc(Nc2nccc(C(F)(F)F)n2)cc(-c2ccc(N3CCOCC3)nn2)c1` [Example 3.29, N-[3-methyl-5-(6-morpholin-4-ylpyridazin-3-yl)phenyl]-4-(trifluoromethyl)pyrimidin-2-amine] reads 100 to 1000 nM; that for `Cc1cc(Nc2nccc(C(F)(F)F)n2)cc(-c2ccc(N3CCC(O)CC3)nn2)c1` [Example 3.30, 1-[6-(3-methyl-5-{[4-(trifluoromethyl)pyrimidin-2-yl]amino}phenyl)pyridazin-3-yl]piperidin-4-ol], 100 to 1000 nM.
The same measure, in the same setting: the result for `Cc1cc(Nc2nccc(C(F)(F)F)n2)cc(-c2ccc(N3CCC(C(N)=O)CC3)nn2)c1` [Example 3.31, 1-[6-(3-methyl-5-{[4-(trifluoromethyl)pyrimidin-2-yl]amino}phenyl)pyridazin-3-yl]piperidine-4-carboxamide] reads < 100 nM; that for `Cc1cc(Nc2nccc(C(F)(F)F)n2)cc(-c2ccc(-c3cccc(C(=O)O)c3)nn2)c1` [Example 3.32, 3-[6-(3-methyl-5-{[4-(trifluoromethyl)pyrimidin-2-yl]amino}phenyl)pyridazin-3-yl]benzoic acid], < 100 nM; that for `Cc1cc(Nc2nccc(C(F)(F)F)n2)cc(-c2ccc(-c3ccc(C(=O)O)cc3)nn2)c1` [Example 3.33, 4-[6-(3-methyl-5-{[4-(trifluoromethyl)pyrimidin-2-yl]amino}phenyl)pyridazin-3-yl]benzoic acid], < 100 nM.
As to `Cc1cc(Nc2nccc(C(F)(F)F)n2)cc(-c2ccc(OC(C)(C)C(=O)O)nn2)c1` [Example 3.34, 2-methyl-2-{[6-(3-methyl-5-{[4-(trifluoromethyl)pyrimidin-2-yl]amino}phenyl)pyridazin-3-yl]oxy}propanoic acid], the IC50 is < 100 nM.
As to `Cc1cc(Nc2nccc(C(F)(F)F)n2)cc(-c2ccc(N(CCN(C)C)C(=O)N(C)C)nn2)c1` [Example 3.35, 1-[2-(dimethylamino)ethyl]-3,3-dimethyl-1-[6-(3-methyl-5-{[4-(trifluoromethyl)pyrimidin-2-yl]amino}phenyl)pyridazin-3-yl]urea], the IC50 was in the range of 100 to 1000 nM.

Still in this experiment, the particulars now being: GST-hSYK 5 pM, ATP 25 μM, values in text, read-out: IC50.
With `Cc1cc(Nc2nccc(C3CC3)n2)cc(-c2cnc(CCC(=O)O)nc2)c1` [Example 3.1, 3-(5-{3-[(4-cyclopropylpyrimidin-2-yl)amino]-5-methylphenyl}pyrimidin-2-yl)propanoic acid], the IC50 is 51.6 nM.
